Test results as given in patent publication US6900234B1, “Synergistic therapeutic compositions and methods” (Pfizer, Inc., priority 1990, dated 2005).

Columns and labels:
Male Hartley guinea pigs = assay: Mean arterial pressure lowering (AOC-MAP) in conscious sodium-depleted guinea pigs after i.v. dosing; type: in vivo, guinea pig; design: unit not given here
Experimental: Male Hartley guinea pigs weighing between 250 and 300 g were obtained from Charles River Laboratories, Lakeview, N.J. The guinea pigs were allowed to acclimate to their environment for at least two weeks. Then, they were placed on a low sodium diet (Purina Modified Guinea Pig Chow, no sodium added) for 14 days and were given injections of furosemide (Lasix® 2 mg/kg, i.m.) on three non-consecutive days. At least 24 hours prior to experimentation, the animals were anesthetized with xylazine (Rompun®, 10 mg/kg, s.c.) and ketamine (Vetalar®, 80 mg/kg, i.m.) and, using aseptic technique, cannulae (PE-50) were implanted into the aorta via the right carotid artery for direct measurement of mean arterial pressure (MAP). Cannulae (PE-50) were also placed into the left jugular vein for intravenous compound administration. Both catheters were exteriorized at the intrascapular region of the animal's back and flushed with a heparinized dextrose solution. To prevent the formation of clots, each cannula was filled with heparin at a concentration of 1000 units/ml. After surgery, an antibacterial, trimethoprim/sulfamethoxazole (Di-Trim®, 30 mg/kg, s.c.), was given to the animals. The animals were allowed to recover with water and no-sodium chow administered ad libitum. On the day of the experiment, each guinea pig was given an additional injection of furosemide (6 mg/kg, i.m.) to accelerate sodium loss and was placed in,a sound-proof, ventilated box with one-way glass for observation. Mean arterial pressure was monitored with a Statham 23DB strain gauge pressure transducer previously calibrated using a mercury manometer. The arterial pressure waveform and derived heart rate were continuously recorded on a Grass Model 7D osciliograph. Arterial pressure waveform samples were obtained approximately every 20 seconds using an IBM PS/2 model 30 computer equipped with a custom algorithm designed to calculate mean arterial pressure from the integrated waveform. Values were obtained for a period of at least one hour prior to and 2 hours (usually 4 hours) after dosing. The test compounds were infused intravenously followed by a 250 μl flush with heparinized dextrose solution.
Dose response curves for the renin inhibitor (RI) (0.3 to 3.0 mg/kg, i.v.) and captopril (0.03 to 1.0 mg/kg, i.v.) were obtained (n=4 to 8) in order to quantitate baseline responses to each drug. In experiments where the renin inhibitor and captopril were co-administered, the renin inhibitor was given first immediately followed by captopril. Doses of renin inhibitor and angiotensin converting enzyme inhibitor, when given together, were chosen on the basis of causing submaximal hypotensive effects. Therefore, the contributory effect of each drug could be quantitated by integration and compared to the expected effect to determine whether additive or synergistic responses had occurred.
Employing the procedure described above, the changes in mean arterial pressure (ΔMAP) for the renin inhibitor (RI), the ACE inhibitor (captopril) and the renin inhibitor (RI), plus the ACE inhibitor (captopril) were obtained for various doses and are shown in Table I, below. The AOC-MAP is the area over the dose response curve for each dose calculated using the trapezoidal method.
The data in Table I were obtained by averaging the Δ MAP of all animals for each dose prior to calculating the AOC-MAP. When the data contained in Table I was reviewed for the purpose of calculating the AOC-MAP by averaging the area over the dose response curve for each animal per dose, it was discovered that the AOC-MAP for 0.5 mg/kg RI plus 0.05 mg/kg captopril inadvertently reflected the data based on only three of the six subject test animals. Shown below in Table II are the AOC-MAP data for the experiments reported in Table I, which data is now the result of determining the area over the dose response curve for each animal per dose and averaging the AOC-MAP, as well as determining the standard deviation. […]

[1] = reported in Oldham et al., J. Cardiovasc. Pharmacol. 6: 672-677 (1984); cited from earlier work
[2] = Table III, 0.30 mg/kg i.v., average of the area for each animal per dose
[3] = Table III, 1.0 mg/kg i.v., average of the area for each animal per dose
[4] = Table I, 1.0 mg/kg i.v., ΔMAP of all animals averaged per dose before calculating the area
[5] = Table II, 1.0 mg/kg i.v., average of the area for each animal per dose

Row | Structure (SMILES) | AOC-MAP (Male Hartley guinea pigs; [2]) | AOC-MAP (Male Hartley guinea pigs; [3]) | AOC-MAP (Male Hartley guinea pigs; Table III, 3.0 mg/kg i.v., average of the area for each animal per dose) | AOC-MAP (Male Hartley guinea pigs; Table I, 0.3 mg/kg i.v., ΔMAP of all animals averaged per dose before calculating the area (trapezoidal)) | AOC-MAP (Male Hartley guinea pigs; [4]) | AOC-MAP (Male Hartley guinea pigs; Table I, 3.0 mg/kg i.v., ΔMAP of all animals averaged per dose before calculating the area) | AOC-MAP (Male Hartley guinea pigs; Table II, 0.3 mg/kg i.v., average of the area for each animal per dose) | AOC-MAP (Male Hartley guinea pigs; [5]) | AOC-MAP (Male Hartley guinea pigs; Table II, 3.0 mg/kg i.v., average of the area for each animal per dose) | AOC-MAP (Male Hartley guinea pigs; Table I, 0.03 mg/kg i.v., ΔMAP of all animals averaged per dose before calculating the area) | AOC-MAP (Male Hartley guinea pigs; Table I, 0.10 mg/kg i.v., ΔMAP of all animals averaged per dose before calculating the area) | AOC-MAP (Male Hartley guinea pigs; Table I, 0.30 mg/kg i.v., ΔMAP of all animals averaged per dose before calculating the area) | AOC-MAP (Male Hartley guinea pigs; Table II, 0.03 mg/kg i.v., average of the area for each animal per dose) | AOC-MAP (Male Hartley guinea pigs; Table II, 0.10 mg/kg i.v., average of the area for each animal per dose) | AOC-MAP (Male Hartley guinea pigs; Table II, 0.30 mg/kg i.v., average of the area for each animal per dose) | AOC-MAP (Male Hartley guinea pigs; Table III, 0.03 mg/kg i.v., average of the area for each animal per dose) | AOC-MAP (Male Hartley guinea pigs; Table III, 0.10 mg/kg i.v., average of the area for each animal per dose) | hypotensive effect of captopril injected during H77 infusion [1]
1 | CCCCc1nc(Cl)c(CO)n1Cc1ccc(-c2ccccc2-c2nn[nH]n2)cc1 [Dup 753] | −125 | −549 | −1575 | – | – | – | – | – | – | – | – | – | – | – | – | – | – | –
2 | CSCC(NC(=O)C(Cc1ccccc1)NC(=O)N1CCOCC1)C(=O)NC(CC1CCCCC1)C(O)C(=O)OC(C)C (stereo not drawn) [RI, [alpha-R[alpha-R*,beta-S*(S*,S*)]-alpha-hydroxy-beta-[[2-[[2-(4-morpholin-1-carboxamido)-1-oxo-3-phenylpropyl]amino[-3-methylthio-1-oxo-propyl]amino]-cyclohexanebutanoic acid, isopropyl ester] | – | – | – | −256 | −496 | −1829 | −310 | −568 | −1990 | – | – | – | – | – | – | – | – | –
3 | C[C@H](CS)C(=O)N1CCC[C@H]1C(=O)O [captopril] | −826 | −3272 | – | – | −3272 | – | – | −3272 | – | −99 | −289 | −1263 | −96 | −283 | −1036 | −96 | −269 | small additional hypotensive effect
